In brackets after ≈: the same amount, converted by molar mass.
Legend:
[1] = target: T1, Carnitine O-palmitoyltransferase 2, mitochondrial (Homo sapiens, UniProt P23786); test: (§1) SUPPLEMENTARY: Inhibition of Carnitine palmitoyltransferase 2
T1 sequence (P23786 whole entry): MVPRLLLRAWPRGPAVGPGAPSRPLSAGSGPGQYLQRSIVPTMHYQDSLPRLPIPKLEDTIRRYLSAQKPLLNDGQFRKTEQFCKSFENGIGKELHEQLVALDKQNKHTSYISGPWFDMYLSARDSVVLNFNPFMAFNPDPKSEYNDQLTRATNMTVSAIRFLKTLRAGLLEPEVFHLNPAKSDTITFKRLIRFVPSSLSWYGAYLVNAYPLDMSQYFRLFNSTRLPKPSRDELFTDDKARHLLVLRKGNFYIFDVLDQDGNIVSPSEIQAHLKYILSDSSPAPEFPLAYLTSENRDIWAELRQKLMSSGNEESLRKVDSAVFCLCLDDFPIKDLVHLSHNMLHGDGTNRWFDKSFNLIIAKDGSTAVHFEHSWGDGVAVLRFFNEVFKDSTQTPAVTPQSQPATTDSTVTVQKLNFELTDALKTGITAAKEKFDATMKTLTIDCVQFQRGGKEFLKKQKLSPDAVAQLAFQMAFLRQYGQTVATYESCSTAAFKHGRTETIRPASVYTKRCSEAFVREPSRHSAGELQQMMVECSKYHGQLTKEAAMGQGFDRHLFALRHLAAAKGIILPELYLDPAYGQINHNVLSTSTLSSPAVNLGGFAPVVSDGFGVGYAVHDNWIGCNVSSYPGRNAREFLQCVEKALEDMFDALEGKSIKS

[2] = target: T2, Carnitine O-palmitoyltransferase 2, mitochondrial (Rattus norvegicus, UniProt P18886); test: as §1
T2 sequence (P18886 whole entry): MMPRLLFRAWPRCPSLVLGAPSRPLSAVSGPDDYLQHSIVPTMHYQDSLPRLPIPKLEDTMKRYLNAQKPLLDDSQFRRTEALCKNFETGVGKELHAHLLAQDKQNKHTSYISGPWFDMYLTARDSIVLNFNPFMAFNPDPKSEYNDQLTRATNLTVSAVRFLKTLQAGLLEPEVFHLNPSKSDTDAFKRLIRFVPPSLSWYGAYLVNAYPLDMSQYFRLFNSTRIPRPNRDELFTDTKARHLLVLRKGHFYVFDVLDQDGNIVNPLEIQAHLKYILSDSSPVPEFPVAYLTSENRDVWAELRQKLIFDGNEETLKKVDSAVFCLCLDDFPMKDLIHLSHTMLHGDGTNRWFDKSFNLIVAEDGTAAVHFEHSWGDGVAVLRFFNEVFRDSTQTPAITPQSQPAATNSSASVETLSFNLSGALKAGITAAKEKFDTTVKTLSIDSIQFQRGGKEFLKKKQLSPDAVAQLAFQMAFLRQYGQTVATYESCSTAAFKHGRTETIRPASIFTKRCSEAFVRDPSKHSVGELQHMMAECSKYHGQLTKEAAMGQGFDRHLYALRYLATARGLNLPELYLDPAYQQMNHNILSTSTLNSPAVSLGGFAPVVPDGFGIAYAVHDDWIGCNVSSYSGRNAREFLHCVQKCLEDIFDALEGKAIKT

[3] = target: T3, Carnitine O-palmitoyltransferase 1, muscle isoform (Homo sapiens, UniProt Q92523); test: SUPPLEMENTARY: Inhibition of Carnitine palmitoyltransferase 1, muscle isoform; design: species or system Muscle tissue
T3 sequence (Q92523 whole entry): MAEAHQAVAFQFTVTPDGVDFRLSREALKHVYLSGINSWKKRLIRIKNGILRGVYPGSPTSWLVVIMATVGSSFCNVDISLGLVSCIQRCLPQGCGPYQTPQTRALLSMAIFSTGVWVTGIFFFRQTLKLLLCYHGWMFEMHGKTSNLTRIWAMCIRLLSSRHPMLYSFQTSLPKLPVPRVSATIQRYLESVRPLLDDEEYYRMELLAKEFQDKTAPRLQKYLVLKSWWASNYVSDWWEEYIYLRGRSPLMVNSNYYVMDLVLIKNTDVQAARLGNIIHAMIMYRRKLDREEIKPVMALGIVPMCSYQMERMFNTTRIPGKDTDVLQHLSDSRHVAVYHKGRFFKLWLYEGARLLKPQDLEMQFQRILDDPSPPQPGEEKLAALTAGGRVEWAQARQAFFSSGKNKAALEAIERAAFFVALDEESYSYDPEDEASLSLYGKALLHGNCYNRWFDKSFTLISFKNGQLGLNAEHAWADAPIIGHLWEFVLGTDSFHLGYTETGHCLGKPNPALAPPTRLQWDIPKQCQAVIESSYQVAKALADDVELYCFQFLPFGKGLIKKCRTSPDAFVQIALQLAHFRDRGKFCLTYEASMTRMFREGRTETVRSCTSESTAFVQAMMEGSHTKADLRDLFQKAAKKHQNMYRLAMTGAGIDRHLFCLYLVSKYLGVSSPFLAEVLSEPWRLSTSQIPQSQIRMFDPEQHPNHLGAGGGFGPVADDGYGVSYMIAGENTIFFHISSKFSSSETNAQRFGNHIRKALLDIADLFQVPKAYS

[4] = target: T4, Carnitine O-palmitoyltransferase 1, liver isoform (Rattus norvegicus, UniProt P32198); test: (§2) SUPPLEMENTARY: Inhibition of Carnitine palmitoyltransferase 1, liver isoform
T4 sequence (P32198 whole entry): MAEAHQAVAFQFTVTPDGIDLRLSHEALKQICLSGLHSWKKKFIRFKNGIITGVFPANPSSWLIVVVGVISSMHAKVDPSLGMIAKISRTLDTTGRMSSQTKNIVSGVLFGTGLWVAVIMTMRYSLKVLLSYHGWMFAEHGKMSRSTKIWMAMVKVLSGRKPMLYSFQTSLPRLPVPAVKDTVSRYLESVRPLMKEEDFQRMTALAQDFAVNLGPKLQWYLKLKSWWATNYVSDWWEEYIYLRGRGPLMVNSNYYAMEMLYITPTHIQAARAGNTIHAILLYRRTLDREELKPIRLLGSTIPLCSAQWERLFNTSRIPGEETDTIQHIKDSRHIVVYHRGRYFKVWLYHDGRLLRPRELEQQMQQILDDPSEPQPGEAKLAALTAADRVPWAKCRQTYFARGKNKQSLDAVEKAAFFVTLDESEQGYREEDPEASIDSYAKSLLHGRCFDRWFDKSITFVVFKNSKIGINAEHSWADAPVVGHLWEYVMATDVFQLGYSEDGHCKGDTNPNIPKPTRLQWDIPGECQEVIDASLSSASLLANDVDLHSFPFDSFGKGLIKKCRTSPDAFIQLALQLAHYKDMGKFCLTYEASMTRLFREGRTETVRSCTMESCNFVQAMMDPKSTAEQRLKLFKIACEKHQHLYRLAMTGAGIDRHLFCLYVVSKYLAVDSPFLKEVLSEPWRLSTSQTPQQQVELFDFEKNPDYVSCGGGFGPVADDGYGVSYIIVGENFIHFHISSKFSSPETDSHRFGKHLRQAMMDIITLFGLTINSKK

[5] = target: T5, Carnitine O-palmitoyltransferase 1, liver isoform (Homo sapiens, UniProt P50416); test: as §2
T5 sequence (P50416 whole entry): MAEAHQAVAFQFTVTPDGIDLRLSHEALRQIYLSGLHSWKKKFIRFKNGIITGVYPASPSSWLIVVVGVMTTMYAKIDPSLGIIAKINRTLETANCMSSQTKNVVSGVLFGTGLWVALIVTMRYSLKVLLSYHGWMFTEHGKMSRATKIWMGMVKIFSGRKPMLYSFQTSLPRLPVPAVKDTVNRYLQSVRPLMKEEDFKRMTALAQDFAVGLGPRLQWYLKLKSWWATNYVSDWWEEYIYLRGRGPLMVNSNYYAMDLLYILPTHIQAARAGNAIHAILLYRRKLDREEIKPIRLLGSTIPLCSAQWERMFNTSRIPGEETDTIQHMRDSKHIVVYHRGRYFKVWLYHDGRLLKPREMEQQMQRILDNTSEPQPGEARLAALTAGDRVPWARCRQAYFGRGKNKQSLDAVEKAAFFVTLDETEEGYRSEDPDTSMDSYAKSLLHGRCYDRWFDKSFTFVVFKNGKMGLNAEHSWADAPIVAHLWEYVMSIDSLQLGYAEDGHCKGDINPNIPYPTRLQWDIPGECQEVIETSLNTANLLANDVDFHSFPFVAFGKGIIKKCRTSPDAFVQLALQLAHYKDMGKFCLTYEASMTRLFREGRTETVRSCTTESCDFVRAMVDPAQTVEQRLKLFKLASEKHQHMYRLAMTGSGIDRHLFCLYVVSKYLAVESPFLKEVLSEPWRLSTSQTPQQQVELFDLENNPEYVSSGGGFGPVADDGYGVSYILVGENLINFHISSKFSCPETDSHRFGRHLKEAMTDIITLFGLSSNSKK

[6] = SUPPLEMENTARY: Lipophilicity (log D) Determination by high-throughput shake-flask; assay type: physicochemical; details: octanol/water
[7] = SUPPLEMENTARY: Lyophilisation Solubility Assay (LYSA); assay type: physicochemical; details: read-out: Kinetic_solubility
[8] = SUPPLEMENTARY: PAMPA permeability assay; assay type: physicochemical; details: read-out: Permeability

SMILES	IC50 [1]	IC50 [2]	IC50 [3]	IC50 [4]	IC50 [5]	logD [6]	solubility kinetic [7]	Papp [8]
Cc1cc(C)cc(S(=O)(=O)N2CCSc3ccc(C(=O)Nc4ccc(C(=O)O)cc4)cc32)c1	1580 nM	2620 nM	2680 nM	26 nM	51 nM	1.75	125 µg/mL (≈ 259 µM)	1.79 ×10⁻⁶ cm/s
COc1ccc(Cl)cc1S(=O)(=O)N1CC(C)c2ccc(C(=O)Nc3ccc(C(=O)O)c(F)c3)cc21 (stereo not given)	584 nM	3880 nM	1180 nM	46.7 nM	92.2 nM	0.6	493 µg/mL (≈ 950 µM)	1.99 ×10⁻⁶ cm/s
COc1ccc(Cl)cc1S(=O)(=O)N1CCSc2ccc(C(=O)Nc3ccc(C(=O)O)c(F)c3)cc21	1990 nM	9040 nM	400 nM	70.5 nM	84 nM	2.6	7 µg/mL (≈ 13 µM)	2.57 ×10⁻⁶ cm/s
Cc1cc(C)cc(S(=O)(=O)c2nn(CCC(=O)O)c3ccc(C(=O)Nc4ccccc4)cc23)c1	> 100000 nM	> 100000 nM	> 100000 nM	22.2 nM	27 nM	1.94	8 µg/mL (≈ 16.8 µM)	0.91 ×10⁻⁶ cm/s
N#Cc1cncc(-c2noc([C@H]3CCCCN3C(=O)COc3ccccc3)n2)c1	> 100000 nM	> 100000 nM	> 100000 nM	759 nM	232 nM	2.49	11 µg/mL (≈ 28.2 µM)	6.36 ×10⁻⁶ cm/s
COc1ccc(Cl)cc1CN1C(=O)OC(C)(C)c2ccc(C(=O)Nc3ccc(C(=O)O)cc3)cc21	10800 nM	28100 nM	6240 nM	96.8 nM	88.5 nM	2.38	3 µg/mL (≈ 6.06 µM)	1.81 ×10⁻⁶ cm/s
Nc1ncc(Cl)c(-c2nc([C@H]3CCCCN3C(=O)COc3ccccc3)no2)n1	14400 nM	> 100000 nM	63800 nM	129 nM	117 nM	2.61	51 µg/mL (≈ 123 µM)	3.59 ×10⁻⁶ cm/s
COc1ccc(Cl)cc1S(=O)(=O)N1COc2c(C)cc(C(=O)Nc3nc(CC(=O)O)cs3)cc21	40900 nM	> 100000 nM	844 nM	65.4 nM	80.1 nM	0.58	195 µg/mL (≈ 372 µM)	2.77 ×10⁻⁶ cm/s
CN1CCN(C(=O)COc2ccccc2)[C@@H](c2nc(-c3ccc4[nH]nnc4c3)no2)C1	> 100000 nM	> 100000 nM	> 100000 nM	265 nM	24.6 nM	1.86	167 µg/mL (≈ 398 µM)	3.75 ×10⁻⁶ cm/s
CN1CCN(c2cc3c(cc2Cl)CN(C(=O)[C@H]2CCCCN2C(=O)COc2ccccc2)C3)CC1	1990 nM	2670 nM	> 100000 nM	66.6 nM	87.8 nM	2.38	242 µg/mL (≈ 487 µM)	3.16 ×10⁻⁶ cm/s
